ChEMBL document CHEMBL1152114, “Synthesis of conformationally constrained potential inhibitors of mammalian metalloproteinases” (Bioorg Med Chem Lett, 1997)

What was measured:
[1] = target: 72 kDa type IV collagenase (Homo sapiens, UniProt P08253); assay: Inhibition of Gelatinase A, matrix metalloprotease-2
[2] = target: Matrix metalloproteinase-9 (Homo sapiens, UniProt P14780); assay: Inhibition of Gelatinase B, matrix metalloprotease-9
L1210 = assay: Compound was evaluated for the inhibitory activity against L1210 cell lines; format: functional, cell-based; conditions: Mus musculus

72 kDa type IV collagenase, sequence (P08253 whole entry): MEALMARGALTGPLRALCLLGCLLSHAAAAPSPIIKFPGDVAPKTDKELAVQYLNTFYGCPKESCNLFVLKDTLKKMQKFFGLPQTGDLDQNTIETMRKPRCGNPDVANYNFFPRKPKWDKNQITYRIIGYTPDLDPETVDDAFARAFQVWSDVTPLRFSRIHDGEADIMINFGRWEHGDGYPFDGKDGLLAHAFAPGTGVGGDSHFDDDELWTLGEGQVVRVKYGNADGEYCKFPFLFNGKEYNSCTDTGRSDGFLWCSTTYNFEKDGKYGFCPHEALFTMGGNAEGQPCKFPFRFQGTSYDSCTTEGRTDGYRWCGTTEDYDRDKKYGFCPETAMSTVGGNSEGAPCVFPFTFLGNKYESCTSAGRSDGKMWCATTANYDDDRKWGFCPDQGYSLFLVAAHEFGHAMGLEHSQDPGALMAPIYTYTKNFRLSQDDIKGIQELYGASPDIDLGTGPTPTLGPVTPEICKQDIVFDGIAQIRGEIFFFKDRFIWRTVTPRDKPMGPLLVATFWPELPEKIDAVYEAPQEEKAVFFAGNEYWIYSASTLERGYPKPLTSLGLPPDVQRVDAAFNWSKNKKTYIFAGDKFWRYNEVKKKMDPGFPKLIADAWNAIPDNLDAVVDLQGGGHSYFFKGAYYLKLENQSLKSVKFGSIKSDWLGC
Matrix metalloproteinase-9, sequence (P14780 whole entry): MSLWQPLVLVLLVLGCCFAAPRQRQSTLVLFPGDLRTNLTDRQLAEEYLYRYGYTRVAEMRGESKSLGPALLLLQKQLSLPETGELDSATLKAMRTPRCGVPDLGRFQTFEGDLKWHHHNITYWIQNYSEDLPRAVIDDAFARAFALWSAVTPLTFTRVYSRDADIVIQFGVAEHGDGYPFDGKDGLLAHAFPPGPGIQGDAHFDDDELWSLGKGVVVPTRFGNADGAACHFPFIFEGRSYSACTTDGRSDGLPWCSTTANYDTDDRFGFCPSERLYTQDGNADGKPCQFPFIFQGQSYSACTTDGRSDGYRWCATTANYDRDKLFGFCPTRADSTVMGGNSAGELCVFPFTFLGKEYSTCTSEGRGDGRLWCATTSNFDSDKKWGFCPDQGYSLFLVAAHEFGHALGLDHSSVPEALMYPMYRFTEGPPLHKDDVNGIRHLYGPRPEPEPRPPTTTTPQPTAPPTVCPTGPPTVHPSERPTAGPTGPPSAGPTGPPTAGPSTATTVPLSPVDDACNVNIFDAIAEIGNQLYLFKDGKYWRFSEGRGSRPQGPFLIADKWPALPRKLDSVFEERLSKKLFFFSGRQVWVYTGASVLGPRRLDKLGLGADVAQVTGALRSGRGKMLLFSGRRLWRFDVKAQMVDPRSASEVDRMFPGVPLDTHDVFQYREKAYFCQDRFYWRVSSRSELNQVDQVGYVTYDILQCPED

IC50 [1]: 32 µM
IC50 [2]: 36 µM
IC50 (L1210): > 1000 µM
Structure (SMILES): CNC(=O)[C@H](Cc1ccccc1)NC(=O)[C@H]1[C@@H](COCC(=O)NO)[C@@H]1CSc1ccccc1
